According to ChEMBL document CHEMBL3045257, “Pyrenocines J-M: four new pyrenocines from the endophytic fungus, Phomopsis sp” (2012):

Legend:
Escherichia coli = test: Antimicrobial activity against Escherichia coli by agar diffusion test; type: functional
[Chlorella] fusca = Antialgal activity against 'Chlorella' fusca by agar diffusion test; type: functional, Scenedesmus fuscus
Microbotryum violaceum = test: Antifungal activity against Microbotryum violaceum by agar diffusion test; type: functional
Priestia megaterium = test: Antimicrobial activity against Bacillus megaterium by agar diffusion test; type: functional
Botrytis cinerea = test: Antifungal activity against Botryotinia fuckeliana by agar diffusion test; type: functional
Phytophthora infestans = test: Antifungal activity against Phytophthora infestans by agar diffusion test; type: functional
Zymoseptoria tritici = test: Antifungal activity against Zymoseptoria tritici by agar diffusion test; type: functional
Pyricularia oryzae = test: Antifungal activity against Magnaporthe oryzae by agar diffusion test; type: functional

CN(C)[C@@H]1C(O)=C(C(N)=O)C(=O)[C@@]2(O)C(O)=C3C(=O)c4c(O)cccc4[C@@](C)(O)[C@H]3C[C@@H]12 [TETRACYCLINE]
inhibition zone (IZ) (Escherichia coli): 18 mm | inhibition zone (IZ) ([Chlorella] fusca): 10 mm | inhibition zone (IZ) (Microbotryum violaceum): 0 mm | inhibition zone (IZ) (Priestia megaterium): 18 mm

CC1(C)S[C@@H]2[C@H](NC(=O)Cc3ccccc3)C(=O)N2[C@H]1C(=O)O [PENICILLIN G]
inhibition zone (IZ) (Escherichia coli): 14 mm | inhibition zone (IZ) ([Chlorella] fusca): 0 mm | inhibition zone (IZ) (Microbotryum violaceum): 0 mm | inhibition zone (IZ) (Priestia megaterium): 18 mm

COc1cc(=O)oc2c1CO[C@@H](CC(C)=O)C2 [PYRENOCINE K]
inhibition zone (IZ) (Botrytis cinerea): 0 mm | inhibition zone (IZ) (Escherichia coli): 6 mm | inhibition zone (IZ) (Phytophthora infestans): 0 mm | inhibition zone (IZ) (Zymoseptoria tritici): 6 mm | inhibition zone (IZ) ([Chlorella] fusca): 6 mm | inhibition zone (IZ) (Microbotryum violaceum): 5 mm | inhibition zone (IZ) (Pyricularia oryzae): 0 mm | inhibition zone (IZ) (Priestia megaterium): 8 mm

CCC[C@@H](Cc1oc(=O)cc(OC)c1CO)OC(C)=O [PYRENOCINE L]
inhibition zone (IZ) (Botrytis cinerea): 0 mm | inhibition zone (IZ) (Escherichia coli): 10 mm | inhibition zone (IZ) (Phytophthora infestans): 0 mm | inhibition zone (IZ) (Zymoseptoria tritici): 0 mm | inhibition zone (IZ) ([Chlorella] fusca): 10 mm | inhibition zone (IZ) (Microbotryum violaceum): 0 mm | inhibition zone (IZ) (Pyricularia oryzae): 0 mm | inhibition zone (IZ) (Priestia megaterium): 9 mm

NYSTATIN
inhibition zone (IZ) (Escherichia coli): 0 mm | inhibition zone (IZ) ([Chlorella] fusca; Scenedesmus fuscus): 0 mm | inhibition zone (IZ) (Microbotryum violaceum): 20 mm | inhibition zone (IZ) (Priestia megaterium): 0 mm

C[C@@H]1C[C@@H]([C@H](O)CC2CC(=O)NC(=O)C2)C(=O)[C@@H](C)C1 [CYCLOHEXIMIDE]
inhibition zone (IZ) (Escherichia coli): 0 mm | inhibition zone (IZ) ([Chlorella] fusca): 35 mm | inhibition zone (IZ) (Microbotryum violaceum): 50 mm | inhibition zone (IZ) (Priestia megaterium): 0 mm

CCCCCc1oc(=O)cc(OC)c1CO [PYRENOCINE M]
inhibition zone (IZ) (Botrytis cinerea): 0 mm | inhibition zone (IZ) (Escherichia coli): 5 mm | inhibition zone (IZ) (Phytophthora infestans): 0 mm | inhibition zone (IZ) (Zymoseptoria tritici): 6 mm | inhibition zone (IZ) ([Chlorella] fusca): 5 mm | inhibition zone (IZ) (Microbotryum violaceum): 5 mm | inhibition zone (IZ) (Pyricularia oryzae): 0 mm | inhibition zone (IZ) (Priestia megaterium): 9 mm
